Measurements from patent US20260008776A1 (HANGZHOU POLYMED BIOPHARMACEUTICALS, INC., priority 2023, published 2026).

Columns and labels:
[1] = Solid-state stability study, influencing factor test of crystal form A; type: physicochemical
Protocol: The glass dish or glass vial was then subjected to different environments in a constant temperature and humidity chamber. The conditions include: illumination: 4500±500 Lux; high temperature: 60° C. (sealed); and high humidity: 25° C. with relative humidity RH=90±5% (open).

[2] = Simulated granulation test (dry and wet grinding); type: physicochemical; conditions: dry grinding 30 minutes; wet grinding with ethanol 30 minutes
Source text: The purpose was to determine whether polymorphs, solvates, or amorphous forms were readily generated.

[3] = High-pressure property test; type: physicochemical; conditions: hydraulic pressure 10 tons, 5 minutes
Source text: The resulting solid was characterized by XRPD and other methods to evaluate its crystal form stability under high-pressure conditions.

[4] = Hygroscopicity study of crystal form A by dynamic vapor sorption (DVS); type: physicochemical; conditions: for Desorption (%) / Sorption (%): DVS
Protocol: The important hygroscopicity of this compound was tested using a dynamic vapor sorption (DVS) instrument. DVS is a dynamic measurement method, so during the measurement process, the sample will undergo a change in mass. Like other types of research methods, DVS records the change in mass of the sample as the relative humidity changes.

[5] = Crystal form transformation, suspension competition experiments; type: physicochemical; conditions: C, D, E, RT; for XRPD of solid after suspension competition: crystal forms A, G together (20 mg each), EtOH/H2O 1/1 (v/v); for XRPD: suspension competition of crystal forms A, G (20 mg each), DMSO/EtOH 1/8 (v/v) saturated solution 15 V
Protocol: In order to study the transformation relationship between various crystal forms and prepare various crystal forms under repeated conditions, a series of suspension competition experiments were carried out on crystal forms A, C, D, E, and G in different solvent systems. The specific experimental steps are as follows:
20 mg of each of crystal forms A, C, D, E, and G were weighed into 5 mL glass vials, and solvents (EtOH/H2O=1/1 (v/v) or DMSO (dimethyl sulfoxide)/EtOH=1/8 (v/v)) were added to form suspensions. The vials were then transferred to 25° C. and stirred for 72 hours. At various time points, the filter cakes were tested by XRPD.

[6] = test system: MV4-11 cells; assay: Killing activity against MV4-11 cells (CellTiter-Glo, CTG); type: cell-based; conditions: Homo sapiens, 72 hours incubation, read-out: IC50 of cell killing activity against MV4-11
Source text: Reagent and consumable information is as follows: • MV4-11 Cells (ATCC, Cat. No. CRL-9591) • DPBS (Dulbecco's Phosphate Buffered Saline, Biosera, Cat. No. LM-S2041/500) • IMDM Medium (Thermo, Cat. No. 12440053) • Fetal Bovine Serum (Biological, Cat. No. 04-002-1A) • Penicillin-Streptomycin Solution (Invitrogen, Cat. No. 15140122) • Dimethyl Sulfoxide (Sigma, Cat. No. D2650) • CellTiter-Glo Luminescent Cell Viability Assay (Promega, Cat. No. G7573) • 96-Well Plate (Corning, Cat. No. 3903)
1. MV-4-11 cells were cultured in a complete IMDM medium (IMDM+10% fetal bovine serum+1% Penicillin-Streptomycin, a mixture of penicillin and streptomycin).
2. MV-4-11 cells with good cell status were collected and washed twice with DPBS (Dulbecco's phosphate buffered saline).
3. MV-4-11 cells were resuspended in a complete IMDM medium, adjusted to a cell density of 1.11×10^6 cells/mL, and 90 μL of the mixture was added to each well of a 96-well plate.
4. A 10-fold concentration of the compound solution was prepared in a complete IMDM medium, and 10 μL of the 10-fold concentration of the compound solution was added to each well of the 96-well plate. After mixing well, the 96-well plate was incubated in a 37° C., 5% CO2 incubator for 72 hours.
5. […]
6. The 96-well plate was removed and equilibrated at room temperature for 10 minutes, and then the chemiluminescence value was measured using a microplate reader.

[7] = Pharmacokinetic test in rats, oral gavage; type: in vivo, Sprague-Dawley rats; conditions: male, Sprague-Dawley, rat, 40 mg/kg, rats, PO, 40 mpk, single dose, plasma
Protocol: (§1) Subsequently, 976 μL of Tween 80 was added and vortexed for 30 seconds, followed by the addition of 488 μL of Kolliphor HS15 (Kolliphor HS15 was used after heating and melting at 50° C.) and vortexed for 30 seconds. Finally, 7808 L of saline was added and vortexed for 30 seconds, followed by ultrasonication for 10 seconds to remove bubbles. The resulting administration preparation was a suspension.
as §1, with “1034” for “976”, “517” for “488”, “8270 μL” for “7808 L”
Species and Strain: Sprague-Dawley rats (SD rats) (Zhejiang Vital River Laboratory Animal Technology Co., Ltd.) • Animal Grade: SPF level
Planned initial body weight for administration: Male 200-250 g. Actual animal weights will be listed in the raw records. • Number and Gender of Animals: 3 (3 per group), male
Based on measured body weights, animals with similar weights were divided into groups of 3 animals each. Blank group animals were used for the collection of blank biological matrices.
• Administration route: Oral gavage • Administration volume: 10 mL/kg • Administration frequency: Single dose • Administration method: The test sample was administered orally via gavage using an appropriate syringe and gavage tube. When using a 2 mL or 5 mL syringe, the administration volume was recorded to one decimal place. When the minimum graduation value of the syringe was 0.2 mL and the administration volume was between two graduation marks, the higher volume was selected for administration.
Sample collection: Approximately 0.30 mL of whole blood was collected from the orbital vein of Group 1 animals at each time point.
The experimental animals were fasted for 12 hours before administration, with free access to water. Blood samples were collected from Group 1 animals (oral gavage group) at 5 min, 15 min, 30 min, 1 h, 2 h, 4 h, 6 h, 8 h, and 24 h after administration.
Sample processing: The collected venous blood was immediately transferred to EDTA-Na2-coated EP tubes (stored in a refrigerator or in an ice box with crushed ice at 2-8° C. prior to use), inverted at least 5 times for thorough mixing, and temporarily stored in an ice box with crushed ice. The collected whole blood was centrifuged at 2000 g for 10 min under 2-8° C. conditions within 2 h to separate plasma, which was then placed in newly labeled centrifuge tubes and stored at −20° C.
The pharmacokinetics group of the Department of Pharmacology and Toxicology conducted the analysis and measurement of all samples, followed by data summarization. Plasma concentration data were analyzed using the pharmacokinetic data analysis software WinNonlin. Non-compartmental analysis (NCA) was employed to calculate pharmacokinetic parameters such as t1/2, Cmax, Tmax, Vd, CL, AUC0-24, and F. The detailed results are shown in the following table: […]

## CC(C)(O)CCn1cc2cc(NC(=O)c3coc(-c4ccnc(C(F)(F)F)c4)n3)c(C(C)(C)O)cc2n1 [crystal form A]
[1]; High Relative Humidity (RH = 90 ± 5%, Open, 25° C.), 5 Days
  Purity: 99.60%
[1]; High Relative Humidity (RH = 90 ± 5%, Open, 25° C.), 11 Days
  Purity: 99.56%
[1]; High Temperature (60° C., Sealed), 5 Days
  Purity: 99.26%
[1]; High Temperature (60° C., Sealed), 11 Days
  Purity: 99.67%
[1]; Strong Illumination (Open), 5 Days
  Purity: 99.67%
[1]; Strong Illumination (Open), 11 Days
  Purity: 99.44%
[1]; illumination 4500±500 Lux, 60° C. sealed, 25° C. RH=90±5% open
  Solid-state stability evaluation: good physical and chemical properties
[1]; initial, before stress
  Purity: 99.70%
[2]
  Crystal form after simulated granulation (XRPD, DSC): have not changed
[3]
  Crystal form after high-pressure treatment (XRPD): has not changed
[4]
  Change in crystal form before and after DVS testing (XRPD): no change in crystal form
[4]; 25° C., up to 90 RH
  Hygroscopicity (DVS), in words: low hygroscopicity
[4]; 25° C./90 RH, two sorption-desorption curves
  Moisture sorption (DVS): less than 0.0400
[4]; first cycle, 0% RH
  Desorption (%): −0.01%
  Sorption (%): 0.00%
[4]; first cycle, 10% RH
  Desorption (%): 0.00%
  Sorption (%): −0.01%
[4]; first cycle, 20% RH
  Desorption (%): 0.00%
  Sorption (%): 0.00%
[4]; first cycle, 30% RH
  Desorption (%): 0.00%
  Sorption (%): 0.00%
[4]; first cycle, 40% RH
  Desorption (%): 0.01%
  Sorption (%): 0.00%
[4]; first cycle, 50% RH
  Desorption (%): 0.02%
  Sorption (%): 0.01%
[4]; first cycle, 60% RH
  Desorption (%): 0.02%
  Sorption (%): 0.01%
[4]; first cycle, 70% RH
  Desorption (%): 0.03%
  Sorption (%): 0.02%
[4]; first cycle, 80% RH
  Desorption (%): 0.03%
  Sorption (%): 0.03%
[4]; first cycle, 90% RH
  Desorption (%): 0.03%
  Sorption (%): 0.03%
[4]; second cycle, 0% RH
  Desorption (%): −0.01%
  Sorption (%): −0.01%
[4]; second cycle, 10% RH
  Desorption (%): −0.01%
  Sorption (%): −0.01%
[4]; second cycle, 20% RH
  Desorption (%): 0.00%
  Sorption (%): −0.01%
[4]; second cycle, 30% RH
  Desorption (%): 0.00%
  Sorption (%): −0.01%
[4]; second cycle, 40% RH
  Desorption (%): 0.01%
  Sorption (%): 0.00%
[4]; second cycle, 50% RH
  Desorption (%): 0.01%
  Sorption (%): 0.01%
[4]; second cycle, 60% RH
  Desorption (%): 0.02%
  Sorption (%): 0.01%
[4]; second cycle, 70% RH
  Desorption (%): 0.03%
  Sorption (%): 0.02%
[4]; second cycle, 80% RH
  Desorption (%): 0.03%
  Sorption (%): 0.02%
[4]; second cycle, 90% RH
  Desorption (%): 0.03%
  Sorption (%): 0.03%
[4]; at 90% RH, DVS 25° C.
  Moisture Sorption: Moisture Sorption of 0.03% at 90% RH
[5]; 24 hours
  XRPD of solid after suspension competition: Crystal Form C
  XRPD: Crystal Form A
[5]; 48 hours
  XRPD of solid after suspension competition: Crystal Form C
  XRPD: Crystal Form A
[5]; 72 hours
  XRPD of solid after suspension competition: Crystal Form C
  XRPD: Crystal Form A

## CC(C)(O)CCn1cc2cc(NC(=O)c3coc(-c4ccnc(C(F)(F)F)c4)n3)c(C(C)(C)O)cc2n1 [formula I]
[6]
  IC50: 21 nM
[7]; read-out: AUC0-24
  AUC(0-t): 4880 ng·h/mL
[7]; read-out: Cmax
  Cmax: 934 ng/mL
